Measured values taken from ChEMBL document CHEMBL1158525, “New heteroaryl nitrones with spin trap properties: Identification of a 4-furoxanyl derivative with excellent properties to be used in biological systems” (Bioorg Med Chem, 2010).
Calls of active or inactive are those of the source.

Experiments:
Format in all cases: functional
Details in all cases: Microsome
Trypanosoma cruzi [1] = assay: Antioxidant activity in Trypanosoma cruzi microsomes assessed as inhibition of NF-induced free radicals generation by EPR-based spin trap technique
Trypanosoma cruzi [2] = assay: Antioxidant activity in Trypanosoma cruzi microsomes assessed as inhibition of TBfx1-induced free radicals generation by EPR-based spin trap technique
Trypanosoma cruzi [3] = assay: Antioxidant activity in Trypanosoma cruzi microsomes assessed as inhibition of PtCl2(NF)-induced free radicals generation by EPR-based spin trap technique
Trypanosoma cruzi [4] = assay: Antioxidant activity in Trypanosoma cruzi microsomes assessed as inhibition of TBfx2-induced free radicals generation by EPR-based spin trap technique

Measured: Activity

Cc1c(/C=[N+](\[O-])C(C)(C)C)no[n+]1[O-]
active: all assays above
